Experiment [1] has as its target T1, Human PDGFRα, cytoplasmic domain (GST-PDGFRα) (Homo sapiens, UniProt P16234).
T1 construct: made in house
Briefly: Human PDGFRα biochemical inhibition assay (off-chip Mobility Shift Assay).

For experiment [2], the target named is T2, Human PDGFRβ, cytoplasmic domain (GST-PDGFRβ) (Homo sapiens, UniProt P09619).
T2 construct: made in house
Briefly: Human PDGFRβ biochemical inhibition assay (off-chip Mobility Shift Assay). The protocol: Human PDGFRβ Biochemical Inhibition Assay
The compounds described herein were tested for the ability to inhibit activity of PDGFRβ which was achieved via use of an off-chip Mobility Shift Assay (MSA). Human PDGFRβ, cytoplasmic domain [557-1106 (end) amino acids of accession number NP_002600.1 (SEQ ID NO: 3)] was expressed as N-terminal GST-fusion protein (88 kDa) using baculovirus expression system (SEQ ID NO: 4). GST-PDGFRβ was purified by using glutathione sepharose chromatography. Test compounds were dissolved in and diluted with dimethylsulfoxide (DMSO) to achieve 1 mM concentration. Then the solution was further diluted 25-fold with assay buffer to make the final test compound solution. The reference compound, Staurosporine, used as the assay positive control was prepared similarly. The 4× compound solution/substrate (CSKtide, 1000 nM)/ATP (Km ATP)/Mg Metal (5 mM) was prepared with kit buffer (20 mM HEPES, 0.01% Triton X-100, 5 mM DTT, pH 7.5), and 2× kinase solution was prepared with assay buffer (20 mM HEPES, 0.01% Triton X-100, 1 mM DTT, pH 7.5). The 5 μL of 4× compound solution, […] of 4× Substrate/ATP/Metal solution, and […] of 2× kinase solution were mixed and incubated in a well of polypropylene 384 well microplate for 1 hour at room temperature. […] of Termination Buffer (QuickScout Screening Assist MSA; Carna Biosciences) was added to the well. The reaction mixture was applied to LabChip™ system (Perkin Elmer), and the product and substrate peptide peaks were separated and quantitated. The kinase reaction was evaluated by the product ratio calculated from peak heights of product(P) and substrate(S) peptides (P/(P+S)). The readout value of reaction control (complete reaction mixture) was set as a 0% inhibition, and the readout value of background (Enzyme(−)) was set as a 100% inhibition, then the percent inhibition of each test solution was calculated.
With respect to PDGFRβ activity: “+++” denotes an IC50 of less than 300 nM; “++” denotes an IC50 of from 300 nM to less than 1000 nM; and “+” denotes an IC50 of 1000 nM or more.

T2 sequence (P09619 with tags, fused parts or gaps): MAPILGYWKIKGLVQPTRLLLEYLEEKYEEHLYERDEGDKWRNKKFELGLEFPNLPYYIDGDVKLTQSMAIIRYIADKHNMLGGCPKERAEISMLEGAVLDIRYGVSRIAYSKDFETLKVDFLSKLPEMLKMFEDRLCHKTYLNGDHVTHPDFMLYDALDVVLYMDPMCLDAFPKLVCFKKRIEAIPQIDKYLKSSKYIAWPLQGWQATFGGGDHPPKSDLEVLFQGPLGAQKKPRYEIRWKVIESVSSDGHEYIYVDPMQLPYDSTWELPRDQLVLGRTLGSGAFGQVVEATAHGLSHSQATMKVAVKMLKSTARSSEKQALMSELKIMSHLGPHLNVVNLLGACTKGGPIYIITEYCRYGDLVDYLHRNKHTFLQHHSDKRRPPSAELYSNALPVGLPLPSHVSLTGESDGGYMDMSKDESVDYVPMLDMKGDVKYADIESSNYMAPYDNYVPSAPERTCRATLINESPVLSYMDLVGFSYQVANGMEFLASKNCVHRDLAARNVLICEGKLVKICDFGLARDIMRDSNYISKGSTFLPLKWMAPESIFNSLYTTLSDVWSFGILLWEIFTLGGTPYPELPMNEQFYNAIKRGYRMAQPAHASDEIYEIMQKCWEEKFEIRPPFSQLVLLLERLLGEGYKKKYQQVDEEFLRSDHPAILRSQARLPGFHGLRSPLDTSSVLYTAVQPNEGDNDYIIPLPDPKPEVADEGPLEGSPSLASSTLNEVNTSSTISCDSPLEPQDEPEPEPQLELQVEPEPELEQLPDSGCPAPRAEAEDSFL
T1 sequence (P16234 550-1089 T674I): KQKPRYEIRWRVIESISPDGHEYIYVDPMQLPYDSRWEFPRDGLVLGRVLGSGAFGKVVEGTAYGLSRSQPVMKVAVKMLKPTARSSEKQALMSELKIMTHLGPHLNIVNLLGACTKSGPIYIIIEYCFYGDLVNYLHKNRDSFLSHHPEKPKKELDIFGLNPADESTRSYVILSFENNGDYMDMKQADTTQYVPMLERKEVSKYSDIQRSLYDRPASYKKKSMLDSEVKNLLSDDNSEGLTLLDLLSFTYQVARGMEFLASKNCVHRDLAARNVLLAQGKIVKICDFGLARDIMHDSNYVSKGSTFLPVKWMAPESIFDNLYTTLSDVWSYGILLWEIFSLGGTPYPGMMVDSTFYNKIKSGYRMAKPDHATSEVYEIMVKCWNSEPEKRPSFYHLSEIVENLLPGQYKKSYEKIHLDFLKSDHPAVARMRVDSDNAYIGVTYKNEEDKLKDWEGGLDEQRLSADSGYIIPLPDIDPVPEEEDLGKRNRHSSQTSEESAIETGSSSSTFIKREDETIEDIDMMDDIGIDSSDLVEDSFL

Consider `CCn1cc2ncc(N[C@@H](C)c3cccc(NC(=O)Cc4cc(C)cc(F)c4)c3)nc2n1` [Compound 639, (S)-N-(3-(1-((2-ethyl-2H-pyrazolo[3,4-b]pyrazin-6-yl)amino)ethyl)phenyl)-2-(3-fluoro-5-methylphenyl) acetamide], for which the IC50 in experiment [1] and in experiment [2] was less than 300 nM throughout.
In the case of `CCc1nc2cc(N[C@@H](C)c3cccc(NC(=O)c4cncc(C)c4)c3)cnc2[nH]1` [Compound 24], the IC50 in experiment [1] and in experiment [2] was 300 to 1000 nM throughout.
With `CCn1cc2ncc(N[C@@H](C)c3cccc(NC(=O)c4ccc(CN5CCC6(COC6)C5)c(C)c4)c3)nc2n1` [Compound 460, (S)-4-((2-oxa-6-azaspiro[3.4]octan-6-yl)methyl)-N-(3-(1-((2-ethyl-2H-pyrazolo[3,4-b]pyrazin-6-yl)amino)ethyl)phenyl)-3-methylbenzamide], the IC50 in experiment [1] and in experiment [2] was less than 300 nM in each case.
As to `Cc1n[nH]c2ncc(N[C@@H](C)c3cccc(NC(=O)c4cc(C(C)C)on4)c3)nc12` [Compound 542, (S)-5-isopropyl-N-(3-(1-((3-methyl-1H-pyrazolo[3,4-b]pyrazin-5-yl)amino)ethyl)phenyl)isoxazole-3-carboxamide], the IC50 in experiment [1] and in experiment [2] was less than 300 nM throughout.
For the molecule `C[C@H](Nc1cnc2cnn(C)c2n1)c1cccc(NC(=O)N2CCc3ccccc3C2)c1` [Compound 55, (S)-N-(3-(1-((1-methyl-1H-pyrazolo[3,4-b]pyrazin-6-yl)amino)ethyl)phenyl)-3,4-dihydroisoquinoline-2(1H)-carboxamide], the IC50 in experiment [1] and in experiment [2] was less than 300 nM throughout.
In the case of `Cc1c[nH]c2ncc(N[C@@H](C)c3cccc(NC(=O)c4cnn(CCF)c4)c3)nc12` [Compound 575, (S)-1-(2-fluoroethyl)-N-(3-(1-((7-methyl-5H-pyrrolo[2,3-b]pyrazin-2-yl)amino)ethyl)phenyl)-1H-pyrazole-4-carboxamide], the IC50 in experiment [1] and in experiment [2] was less than 300 nM each time.
As for `C[C@H](Nc1cnc2[nH]cc(-c3cnn(C)c3)c2n1)c1cccc(NC(=O)c2cnn(C3CC3)c2)c1` [Compound 581, (S)-1-cyclopropyl-N-(3-(1-((7-(1-methyl-1H-pyrazol-4-yl)-5H-pyrrolo[2,3-b]pyrazin-2-yl)amino)ethyl)phenyl)-1H-pyrazole-4-carboxamide], the IC50 in experiment [1] and in experiment [2] was less than 300 nM each time.
Regarding `Cc1cncc(C(=O)Nc2cccc([C@H](C)Nc3cnc4ccn(-c5cnn(C)c5)c4n3)c2)c1` [Compound 86, (S)-5-methyl-N-(3-(1-((5-(1-methyl-1H-pyrazol-4-yl)-5H-pyrrolo[2,3-b]pyrazin-3-yl)amino)ethyl)phenyl) nicotinamide], the IC50 in experiment [1] and in experiment [2] was less than 300 nM throughout.
For `CCn1cc2ncc(N[C@@H](C)c3cccc(NC(=O)c4ccc(CN5CC6(CN(C)C6)C5)c(C)c4)c3)nc2n1` [Compound 473, (S)-N-(3-(1-((2-ethyl-2H-pyrazolo[3,4-b]pyrazin-6-yl)amino)ethyl)phenyl)-3-methyl-4-((6-methyl-2,6-diazaspiro[3.3]heptan-2-yl)methyl)benzamide], the IC50 in experiment [1] and in experiment [2] was less than 300 nM throughout.
As for `CSc1cccc(C(=O)Nc2cccc([C@H](C)Nc3cnc4cnn(C)c4n3)c2)c1` [Compound 224, (S)-N-(3-(1-((1-methyl-1H-pyrazolo[3,4-b]pyrazin-6-yl)amino)ethyl)phenyl)-3-(methylthio)benzamide], the IC50 in experiment [1] and in experiment [2] was less than 300 nM in each case.
As for `Cc1c[nH]c2ncc(N[C@@H](C)c3cccc(NC(=O)c4cc(C(F)(F)F)n(C)n4)c3)nc12` [Compound 567, (S)-1-methyl-N-(3-(1-((7-methyl-5H-pyrrolo[2,3-b]pyrazin-2-yl)amino)ethyl)phenyl)-5-(trifluoromethyl)-1H-pyrazole-3-carboxamide], the values for the IC50 in experiment [1] and in experiment [2] were less than 300 nM and 300 to 1000 nM, respectively.
On to `CCn1cc2ncc(N[C@@H](C)c3cccc(NC(=O)c4ccc(CN5CCCC6(COC6)C5)c(C)c4)c3)nc2n1` [Compound 481, (S)-4-((2-oxa-6-azaspiro[3.5]nonan-6-yl)methyl)-N-(3-(1-((2-ethyl-2H-pyrazolo[3,4-b]pyrazin-6-yl)amino)ethyl)phenyl)-3-methylbenzamide], for which the IC50 in experiment [1] and in experiment [2] was less than 300 nM throughout.
As for `COc1ccc(NC(=O)c2cncc(C)c2)cc1CNc1cnc2ccccc2n1` [Compound 43, N-(4-methoxy-3-((quinoxalin-2-ylamino)methyl)phenyl)-5-methylnicotinamide], the IC50 (in general, the midpoint of a concentration-inhibition curve) in experiment [1] was 300 to 1000 nM; in experiment [2], not below 1000 nM.
For `CCn1cc2ncc(N[C@@H](C)c3cc(NC(=O)Cc4ccccc4)ccc3F)nc2n1` [Compound 637, (S)-N-(3-(1-((2-ethyl-2H-pyrazolo[3,4-b]pyrazin-6-yl)amino)ethyl)-4-fluorophenyl)-2-phenylacetamide], in that order: less than 300 nM and less than 300 nM.
For `CCn1cc2ncc(N[C@@H](C)c3cc(NC(=O)c4cc(C)c(CN5CCN(C)CC5)c(F)c4)ccc3C)nc2n1` [Compound 528, (S)-N-(3-(1-((2-ethyl-2H-pyrazolo[3,4-b]pyrazin-6-yl)amino)ethyl)-4-methylphenyl)-3-fluoro-5-methyl-4-((4-methylpiperazin-1-yl)methyl) benzamide], in that order: less than 300 nM and less than 300 nM.
For `CCn1cc2ncc(N[C@@H](C)c3cccc(NC(=O)Cc4cc(F)ccc4F)c3)nc2n1` [Compound 640, (S)-2-(2,5-difluorophenyl)-N-(3-(1-((2-ethyl-2H-pyrazolo[3,4-b]pyrazin-6-yl)amino)ethyl)phenyl)acetamide], in that order: less than 300 nM and 300 to 1000 nM.
On to `COc1cncc(C(=O)Nc2cccc([C@H](C)Nc3cnc4[nH]cc(-c5cnn(C)c5)c4n3)c2)c1` [Compound 586, (S)-5-methoxy-N-(3-(1-((7-(1-methyl-1H-pyrazol-4-yl)-5H-pyrrolo[2,3-b]pyrazin-2-yl)amino)ethyl)phenyl) nicotinamide], for which the IC50 in experiment [1] and in experiment [2] was less than 300 nM throughout.
Regarding `CCn1cc2ncc(N[C@@H](C)c3cccc(NC(=O)c4cnn(C(C)C)c4)c3)nc2n1` [Compound 301, (S)-N-(3-(1-((2-ethyl-2H-pyrazolo[3,4-b]pyrazin-6-yl)amino)ethyl)phenyl)-1-isopropyl-1H-pyrazole-4-carboxamide], the IC50 in experiment [1] and in experiment [2] was less than 300 nM each time.
For the molecule `CCn1cc2ncc(N[C@@H](C)c3cccc(NC(=O)c4ccc(CN5CC[C@@H](F)C5)c(C)c4)c3)nc2n1` [Compound 469, N-(3-((S)-1-((2-ethyl-2H-pyrazolo[3,4-b]pyrazin-6-yl)amino)ethyl)phenyl)-4-(((R)-3-fluoropyrrolidin-1-yl)methyl)-3-methylbenzamide], the IC50 in experiment [1] and in experiment [2] was less than 300 nM each time.
With `CCn1cc2ncc(N[C@@H](C)c3cc(NC(=O)Cc4cncc(C)c4)ccc3F)nc2n1` [Compound 652, (S)-N-(3-(1-((2-ethyl-2H-pyrazolo[3,4-b]pyrazin-6-yl)amino)ethyl)-4-fluorophenyl)-2-(5-methylpyridin-3-yl) acetamide], the half-inhibitory concentration (IC50) in experiment [1] was less than 300 nM; in experiment [2], 300 to 1000 nM.
On to `Cc1cc(C(=O)Nc2cccc([C@H](C)Nc3cnc4cnn(C)c4n3)c2)ccc1C#N` [Compound 193, (S)-4-cyano-3-methyl-N-(3-(1-((1-methyl-1H-pyrazolo[3,4-b]pyrazin-6-yl)amino)ethyl)phenyl)benzamide], for which the IC50 in experiment [1] and in experiment [2] was less than 300 nM throughout.
With `CCn1cc2ncc(N[C@@H](C)c3cccc(NC(=O)c4ccc(C(=O)N5CC[C@@H](N)C5)c(Cl)c4)c3)nc2n1` [Compound 467, 4-((R)-3-aminopyrrolidine-1-carbonyl)-3-chloro-N-(3-((5)-1-((2-ethyl-2H-pyrazolo[3,4-b]pyrazin-6-yl)amino)ethyl)phenyl)benzamide], the IC50 in experiment [1] was less than 300 nM; in experiment [2] it was not below 1000 nM.
For `CCn1cc2ncc(N[C@@H](C)c3cc(NC(=O)Cc4ccc(C5CC5)cn4)ccc3C)nc2n1` [Compound 662, (S)-2-(5-cyclopropylpyridin-2-yl)-N-(3-(1-((2-ethyl-2H-pyrazolo[3,4-b]pyrazin-6-yl)amino)ethyl)-4-methylphenyl) acetamide], in that order: less than 300 nM and not below 1000 nM.

The values are drawn from patent US20230102554A1 (GB002, INC., priority 2019, published 2023).
